Results as given in PubChem BioAssay AID248 (DTP/NCI, 2004).
Several values for one entry are separate records, joined by “and”; a condition that tells them apart may be missing. Equal values may be shown once. Inconclusive results and toxic doses are left out. Cut-off read from the data, not from the text of the source: active = T/C of 150% or more; inactive = T/C below 125%.

System: L1210 leukemia ip in BDF1 mice, survival T/C
Assay: NCI In Vivo Anticancer Drug Screen. Data for tumor model L1210 Leukemia (intraperitoneal) in B6D2F1 (BDF1) mice
Conditions: endpoint: mean survival time, higher = longer survival
Procedure, shortened: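 Value reflects the ratio of survival in compound-treated mice to survival in vehicle-treated controls, with both groups carrying the same transplanted tumor.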

[1] = dose: 50.0 mg/kg/injection, schedule: Q01DX001 (ip), vehicle: saline
[2] = dose: 100.0 mg/kg/injection, schedule: Q01DX001 (ip), vehicle: saline
[3] = dose: 200.0 mg/kg/injection, schedule: Q01DX001 (ip), vehicle: saline
[4] = dose: 400.0 mg/kg/injection, schedule: Q01DX001 (ip), vehicle: saline
[5] = dose: 100.0 mg/kg/injection, schedule: Q01DX009 (ip), vehicle: saline with Tween-80
[6] = dose: 200.0 mg/kg/injection, schedule: Q01DX009 (ip), vehicle: saline with Tween-80
[7] = dose: 25.0 mg/kg/injection, schedule: Q01DX009 (ip), vehicle: saline
[8] = dose: 50.0 mg/kg/injection, schedule: Q01DX009 (ip), vehicle: saline
[9] = dose: 100.0 mg/kg/injection, schedule: Q01DX009 (ip), vehicle: saline
[10] = dose: 100.0 mg/kg/injection, schedule: Q04DX002 (ip), vehicle: Klucel (hydroxypropylcellulose) (HPC)
[11] = dose: 200.0 mg/kg/injection, schedule: Q04DX002 (ip), vehicle: Klucel (hydroxypropylcellulose) (HPC)
[12] = dose: 400.0 mg/kg/injection, schedule: Q04DX002 (ip), vehicle: Klucel (hydroxypropylcellulose) (HPC)
[13] = dose: 100.0 mg/kg/injection, schedule: Q01DX009 (ip), vehicle: Klucel (hydroxypropylcellulose) (HPC)
[14] = dose: 200.0 mg/kg/injection, schedule: Q01DX009 (ip), vehicle: Klucel (hydroxypropylcellulose) (HPC)
[15] = dose: 400.0 mg/kg/injection, schedule: Q01DX009 (ip), vehicle: Klucel (hydroxypropylcellulose) (HPC)
[16] = dose: 100.0 mg/kg/injection, schedule: Q01DX001 (ip), vehicle: carboxymethylcellulose (CMC)
[17] = dose: 200.0 mg/kg/injection, schedule: Q01DX001 (ip), vehicle: carboxymethylcellulose (CMC)
[18] = dose: 200.0 mg/kg/injection, schedule: Q04DX003 (ip), vehicle: saline with Tween-80
[19] = dose: 400.0 mg/kg/injection, schedule: Q01DX001 (ip), vehicle: carboxymethylcellulose (CMC)
[20] = dose: 400.0 mg/kg/injection, schedule: Q04DX003 (ip), vehicle: saline with Tween-80
[21] = dose: 100.0 mg/kg/injection, schedule: Q04DX002 (ip), vehicle: saline
[22] = dose: 200.0 mg/kg/injection, schedule: Q04DX002 (ip), vehicle: saline
[23] = dose: 400.0 mg/kg/injection, schedule: Q04DX002 (ip), vehicle: saline
[24] = dose: 100.0 mg/kg/injection, schedule: Q04DX003 (ip), vehicle: saline with Tween-80

Measured: T/C

NC(N)=N/N=C/c1cccc(Cl)c1
inactive: dose: 3.75 mg/kg/injection, schedule: Q01DX Z (ip), vehicle: saline 92 % of control | dose: 7.5 mg/kg/injection, schedule: Q01DX Z (ip), vehicle: saline 94 % of control | dose: 15.0 mg/kg/injection, schedule: Q01DX Z (ip), vehicle: saline 94 % of control | dose: 15.0 mg/kg/injection, schedule: Q01DX Z (oral), vehicle: saline 98 % of control | dose: 30.0 mg/kg/injection, schedule: Q01DX Z (ip), vehicle: saline 100 % of control | dose: 30.0 mg/kg/injection, schedule: Q01DX Z (oral), vehicle: saline 98 % of control | dose: 60.0 mg/kg/injection, schedule: Q01DX Z (oral), vehicle: saline 98 % of control | dose: 120.0 mg/kg/injection, schedule: Q01DX Z (oral), vehicle: saline 102 % of control

CC(=O)N(c1ccccc1)C(C(=O)c1ccccc1)c1ccccc1 (configuration not stated)
inactive: [1] 98 % of control | [2] 102 % of control | [3] 108 % of control | [4] 98 % of control

CCCCCCCCCC(=O)OCCN1CCN(CCCN2c3ccccc3Sc3ccc(C(F)(F)F)cc32)CC1
inactive: dose: 1.56 mg/kg/injection, schedule: Q01DX009 (ip), vehicle: alcohol 107 % of control | dose: 25.0 mg/kg/injection, schedule: Q04DX003 (ip), vehicle: saline with Tween-80 106 % of control

CCC(CO)C(C)C (configuration not stated)
inactive: dose: 50.0 mg/kg/injection, schedule: Q01DX009 (ip), vehicle: saline with Tween-80 107 % of control | [5] 102 % of control | [6] 93 % of control

COc1ncnc2c1ncn2C1CC(CO)C(O)C1O (configuration not stated)
inactive: [7] 102 % of control | [8] 95 % of control | [9] 91 % of control

O=S1(=O)CC(N2CCCCC2)C12CC1c3ccccc3C2c2ccccc21 (configuration not stated)
inactive: [10] 104 % of control | [11] 101 % of control | [12] 101 % of control

O=C(O)CNC(=O)c1ccccc1C(=O)NCC(=O)OCc1ccccc1
inactive: [1] 94 % of control | [2] 91 % of control | [3] 91 % of control | [4] 97 % of control

CN(C)C(=O)Nc1ccncc1
inactive: dose: 25.0 mg/kg/injection, schedule: Q01DX001 (ip), vehicle: saline 97 % of control | [7] 98 % of control and 91 % of control | dose: 25.0 mg/kg/injection, schedule: Q04DX002 (ip), vehicle: saline with Tween-80 93 % of control and 97 % of control | dose: 25.0 mg/kg/injection, schedule: Q04DX003 (ip), vehicle: saline 103 % of control | [1] 95 % of control | [8] 97 % of control and 88 % of control | dose: 50.0 mg/kg/injection, schedule: Q04DX002 (ip), vehicle: saline with Tween-80 98 % of control and 105 % of control | dose: 50.0 mg/kg/injection, schedule: Q04DX003 (ip), vehicle: saline 101 % of control

CC(C)(C)N1CCC1C(=O)NN (configuration not stated)
inactive: [8] 96 % of control | [9] 93 % of control | dose: 200.0 mg/kg/injection, schedule: Q01DX009 (ip), vehicle: saline 93 % of control

O=C(Oc1c(-c2ccccc2)[nH]c2ccccc12)c1ccc([N+](=O)[O-])cc1
inactive: [10] 104 % of control | [11] 101 % of control | [12] 90 % of control

Cc1cc(NC(=O)C(=O)Nc2cc(C)on2)no1
inactive: [13] 93 % of control | [14] 100 % of control | [15] 93 % of control

COc1ccc2nccc(C=O)c2c1
inactive: dose: 50.0 mg/kg/injection, schedule: Q01DX001 (ip), vehicle: carboxymethylcellulose (CMC) 108 % of control | [16] 102 % of control | [5] 101 % of control | [17] 102 % of control | [6] 95 % of control | [18] 101 % of control | [19] 96 % of control | [20] 89 % of control

C(=C\c1cccc2ccccc12)/c1ccncc1
inactive: dose: 75.0 mg/kg/injection, schedule: Q01DX001 (ip), vehicle: carboxymethylcellulose (CMC) 97 % of control | dose: 150.0 mg/kg/injection, schedule: Q01DX001 (ip), vehicle: carboxymethylcellulose (CMC) 88 % of control | dose: 300.0 mg/kg/injection, schedule: Q01DX001 (ip), vehicle: carboxymethylcellulose (CMC) 90 % of control

CCOCc1ccc(O)c2ncccc12
inactive: dose: 264.0 mg/kg/injection, schedule: Q01DX001 (ip), vehicle: carboxymethylcellulose (CMC) 106 % of control | [19] 107 % of control

Cc1c(Cl)c(C)c(Sc2c(C)c(Cl)c(C)c(Br)c2O)c(O)c1Br
inactive: dose: 100.0 mg/kg/injection, schedule: Q01DX001 (ip), vehicle: other 87 % of control | dose: 100.0 mg/kg/injection, schedule: Q04DX003 (ip), vehicle: other 100 % of control | dose: 200.0 mg/kg/injection, schedule: Q01DX001 (ip), vehicle: other 88 % of control | dose: 200.0 mg/kg/injection, schedule: Q04DX003 (ip), vehicle: other 107 % of control | dose: 400.0 mg/kg/injection, schedule: Q01DX001 (ip), vehicle: other 93 % of control | dose: 400.0 mg/kg/injection, schedule: Q04DX003 (ip), vehicle: other 113 % of control

Nc1nc(N)c(N=Nc2ccc(S(=O)(=O)Nc3ccccn3)cc2)cc1N=Nc1ccccc1
inactive: [16] 94 % of control | [17] 102 % of control | [19] 103 % of control

COC1OC2COc3ccccc3OC2C2C1N2C(N)=S (configuration not stated)
inactive: [21] 96 % of control | [22] 100 % of control | [23] 100 % of control

ClCCN(CCCl)CCn1cnc2c(SCc3ccccc3)ncnc21
inactive: dose: 13.0 mg/kg/injection, schedule: Q01DX Z (ip), vehicle: carboxymethylcellulose (CMC) 103 % of control | dose: 20.0 mg/kg/injection, schedule: Q01DX Z (ip), vehicle: carboxymethylcellulose (CMC) 108 % of control | dose: 30.0 mg/kg/injection, schedule: Q01DX Z (ip), vehicle: carboxymethylcellulose (CMC) 105 % of control | dose: 45.0 mg/kg/injection, schedule: Q01DX Z (ip), vehicle: carboxymethylcellulose (CMC) 110 % of control

CNNC(=O)NC
inactive: [8] 109 % of control | [9] 94 % of control

CC1(C)C(=O)C=C(N2CCCCC2)c2ccccc21
inactive: [24] 101 % of control | [18] 98 % of control | [20] 97 % of control

CC(NC(N)=O)C(=O)O (configuration not stated)
inactive: [21] 89 % of control | [22] 104 % of control | [23] 93 % of control

O=C1C=C/C(=N/c2ccc(O)o2)c2ccccc21
inactive: dose: 150.0 mg/kg/injection, schedule: Q01DX001 (ip), vehicle: saline 100 % of control

CN(C)N=Nc1ccccc1I
inactive: [13] 103 % of control | [14] 104 % of control and 105 % of control | [15] 113 % of control and 116 % of control | dose: 600.0 mg/kg/injection, schedule: Q01DX009 (ip), vehicle: Klucel (hydroxypropylcellulose) (HPC) 115 % of control

Clc1ccc(Oc2ccc(N3C=Nc4ccc(Oc5ccc(Cl)cc5)cc4C3)cc2)cc1
inactive: [5] 98 % of control | [24] 97 % of control | [6] 96 % of control | [18] 94 % of control | dose: 400.0 mg/kg/injection, schedule: Q01DX009 (ip), vehicle: saline with Tween-80 93 % of control | [20] 89 % of control

CC(=O)OC1CSC1OC(C)=O (configuration not stated)
inactive: dose: 100.0 mg/kg/injection, schedule: Q01DX001 (ip), vehicle: saline with Tween-80 95 % of control | dose: 200.0 mg/kg/injection, schedule: Q01DX001 (ip), vehicle: saline with Tween-80 93 % of control | dose: 400.0 mg/kg/injection, schedule: Q01DX001 (ip), vehicle: saline with Tween-80 98 % of control

CC(C(=O)NN)C(C)(C)O (configuration not stated)
inactive: [10] 97 % of control | [11] 94 % of control | [12] 101 % of control

CCCN(CCC)P(c1ccccc1)N(CCC)CCC
inactive: dose: 100.0 mg/kg/injection, schedule: Q04DX002 (ip), vehicle: saline with Tween-80 93 % of control | dose: 200.0 mg/kg/injection, schedule: Q04DX002 (ip), vehicle: saline with Tween-80 101 % of control

C[N+](C)(Cc1ccccc1)/N=C(\[O-])Cc1ccccc1
inactive: [2] 95 % of control | [3] 104 % of control
